Measurements reported in US8530680B2, “System and method for controlling growth of microorganisms with brominated furanones” (Syracuse University, priority 2008, dated 2013).

Legend:
[1] = system: orf19.2175 (CPD1) expression in C. albicans; assay: RNA dot blotting of C. albicans genes after BF1 treatment; type: cell-based, Candida albicans; conditions: 3 μg/mL BF1
Experimental: To corroborate the microarray results, four genes were checked with RNA dot blotting for their expression levels under the same conditions tested in microarray analysis: orf19.5604 (MDR1), orf19.2175 (CPD1), orf19.2896 (SOU1) and orf19.5565. The total RNA of a control sample without furanone was used to synthesize complementary DNA (cDNA) using OneStep RT-PCR Kit (QIAGEN Inc.) by following the manufacture's protocol. The annealing temperature was optimized based on the primers and was performed at 50° C. for 1 minute in each cycle. The length of the template cDNA was 457 bp, 364 bp, 455 bp and 423 bp for orf19.5604 (MDR1), orf19.2175 (CPD1), orf19.2896 (SOU1) and orf19.5565, respectively.
The DNA probes labeled with Digoxigenin (DIG)-dUTP were then generated using the same primer sets and PCR DIG Probe Synthesis Kit (Roche® Applied Science, Mannheim, Germany) by following the manufacture's protocol except that the annealing temperature was 48° C. for orf19.2175 and orf19.5565, and 51° C. for orf19.2896 and orf19.5604. Total RNA was isolated from cultures treated under the same conditions as in DNA microarray experiments. […] The light signal was recorded using Biomax X-ray films from Kodak (Rochester, N.Y.). […]

C. albicans = C. albicans viability assay based on colony-forming unit (CFU) counting; type: cell-based, Candida albicans; conditions: 60 μg/mL, 6 hours in 0.85% NaCl buffer
Experimental: To further examine the effect of brominated furanones on fungal growth and understand whether BFs are fungicidal agents to C. albicans, BF1 was used as the representative compound in a viability assay based on colony-forming unit (“CFU”) counting. An overnight culture of C. albicans was sub-cultured in 100 mL of SD medium to an initial OD600 of 0.005 and was grown for 24 hours. The cells were then harvested by centrifugation at 4,500 rpm for 5 minutes at room temperature and washed twice with 0.85% NaCl buffer. Then the cells were resuspended in 0.85% NaCl buffer and supplemented with 0, or 60 μg/mL BF1, BF8, BF9, BF10, BF11, BF12, or BF14 to an OD600 of 2.0 using 17×100-mm polystyrene test tubes (Fisher Scientific). After incubation at 30° C. for 6 hours with shaking at 200 rpm, the treated cells were spread on Yeast Extract Peptone Dextrose (YPD) plates containing 20 g/L peptone, 10 g/L yeast extract, 20 g/L dextrose and 15 g/L agar. The colony-forming units (CFUs) on the plates were counted after 24 hours of incubation at 30° C. to evaluate the killing of C. albicans by furanones. Duplicate samples for each furanone were tested and five agar plates were counted for each sample.

Row | SMILES | induction of gene CPD1 in RNA dot blotting [1] | reduction of CFU (C. albicans)
1 | CCCCC1=C(Br)/C(=C/Br)OC1=O [BF1, 4-bromo-5Z-(bromomethylene)-3-butylfuran-2-one] | 10 fold | –
2 | O=C1OC(=C(Br)Br)C=C1C(Br)Br [BF10, 3-(dibromomethyl)-5-(dibromomethylene)furan-2-one] | – | 100%
3 | CC1=C(Br)/C(=C/Br)OC1=O [BF8, 4-bromo-5Z-(bromomethylene)-3-methylfuran-2-one] | – | 50%
